Source: US20230365592A1 (Agios Pharmaceuticals, Inc., priority 2022, published 2023)

molecular target: T1, human PAH with the R408W mutation (Homo sapiens, UniProt P00439, R408W); assay: Cell Based Phenylalanine Flux Assay; conditions: A375 cells expressing human R408W PAH; 24 hrs compound incubation; 13C-Tyrosine by LC-MS; average where tested multiple times; read-out: AC50;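 note: after compound treatment, cells received sepiapterin plus isotope-labelled Phenylalanine for 4 hours, then labelled Tyrosine in the medium was quantified, 10-point 2-fold dilution series run in duplicate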
T1 construct: expressed in transfected cells
T1 sequence (P00439 1-452 R408W): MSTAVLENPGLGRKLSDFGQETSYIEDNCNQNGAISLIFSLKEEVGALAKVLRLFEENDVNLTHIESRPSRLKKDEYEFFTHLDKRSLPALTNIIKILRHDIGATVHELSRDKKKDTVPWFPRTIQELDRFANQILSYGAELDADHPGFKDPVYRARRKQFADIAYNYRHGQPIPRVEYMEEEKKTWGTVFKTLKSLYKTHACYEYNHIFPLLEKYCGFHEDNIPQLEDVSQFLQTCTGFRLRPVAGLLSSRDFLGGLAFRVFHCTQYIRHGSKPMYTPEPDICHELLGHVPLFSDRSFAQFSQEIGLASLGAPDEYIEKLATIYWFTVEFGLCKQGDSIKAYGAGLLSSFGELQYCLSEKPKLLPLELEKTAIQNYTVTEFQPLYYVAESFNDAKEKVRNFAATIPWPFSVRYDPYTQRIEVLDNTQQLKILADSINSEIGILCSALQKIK

Structure (SMILES)	AC50
O=C(c1nnc(-c2ncccc2F)o1)N1CCc2[nH]cnc2[C@@H]1c1cc2cccc(C(F)(F)F)n2n1 [Example 1035, (R)-(5-(3-fluoropyridin-2-yl)-1,3,4-oxadiazol-2-yl)(4-(7-(trifluoromethyl)pyrazolo[1,5-a]pyridin-2-yl)-6,7-dihydro-1H-imidazo[4,5-c]pyridin-5(4H)-yl)methanone]	> 5000 nM
O=C(c1nnc(-c2ccn(C(F)F)n2)o1)N1CCc2[nH]cnc2[C@H]1c1cc2cccc(C(F)(F)F)n2n1 [Example 1036, (S)-(5-(1-(difluoromethyl)-1H-pyrazol-3-yl)-1,3,4-oxadiazol-2-yl)(4-(7-(trifluoromethyl)pyrazolo[1,5-a]pyridin-2-yl)-6,7-dihydro-1H-imidazo[4,5-c]pyridin-5(4H)-yl)methanone]	500 to 1000 nM
O=C(c1nnc(-c2ccn(C(F)F)n2)o1)N1CCc2[nH]cnc2[C@@H]1c1cc2cccc(C(F)(F)F)n2n1 [Example 1037, (R)-(5-(1-(difluoromethyl)-1H-pyrazol-3-yl)-1,3,4-oxadiazol-2-yl)(4-(7-(trifluoromethyl)pyrazolo[1,5-a]pyridin-2-yl)-6,7-dihydro-1H-imidazo[4,5-c]pyridin-5(4H)-yl)methanone]	> 5000 nM
Cc1cccn2nc([C@@H]3c4nc[nH]c4CCN3C(=O)c3nnc(-c4cnn(C5CCC5)c4)o3)cc12 [Example 1038, (S)-(5-(1-cyclobutyl-1H-pyrazol-4-yl)-1,3,4-oxadiazol-2-yl)(4-(4-methylpyrazolo[1,5-a]pyridin-2-yl)-6,7-dihydro-1H-imidazo[4,5-c]pyridin-5(4H)-yl)methanone]	< 500 nM
Cc1cccn2nc([C@H]3c4nc[nH]c4CCN3C(=O)c3nnc(-c4cnn(C5CCC5)c4)o3)cc12 [Example 1039, (R)-(5-(1-cyclobutyl-1H-pyrazol-4-yl)-1,3,4-oxadiazol-2-yl)(4-(4-methylpyrazolo[1,5-a]pyridin-2-yl)-6,7-dihydro-1H-imidazo[4,5-c]pyridin-5(4H)-yl)methanone]	> 5000 nM
O=C(c1nnc(-c2cnn(C(F)F)c2)o1)N1CCc2[nH]cnc2[C@H]1c1cc2cccc(C(F)(F)F)n2n1 [Example 1040, (S)-(5-(1-(difluoromethyl)-1H-pyrazol-4-yl)-1,3,4-oxadiazol-2-yl)(4-(7-(trifluoromethyl)pyrazolo[1,5-a]pyridin-2-yl)-6,7-dihydro-1H-imidazo[4,5-c]pyridin-5(4H)-yl)methanone]	500 to 1000 nM
O=C(c1nnc(-c2cnn(C(F)F)c2)o1)N1CCc2[nH]cnc2[C@@H]1c1cc2cccc(C(F)(F)F)n2n1 [Example 1041, (R)-(5-(1-(difluoromethyl)-1H-pyrazol-4-yl)-1,3,4-oxadiazol-2-yl)(4-(7-(trifluoromethyl)pyrazolo[1,5-a]pyridin-2-yl)-6,7-dihydro-1H-imidazo[4,5-c]pyridin-5(4H)-yl)methanone]	> 5000 nM
O=C(c1nnc(-c2ccccn2)o1)N1CCc2[nH]cnc2[C@H]1c1cc2cccc(Cl)n2n1 [Example 1042, (S)-(4-(7-chloropyrazolo[1,5-a]pyridin-2-yl)-6,7-dihydro-1H-imidazo[4,5-c]pyridin-5(4H)-yl)(5-(pyridin-2-yl)-1,3,4-oxadiazol-2-yl)methanone]	< 500 nM
Cn1ncnc1C(=O)N1CCc2[nH]cnc2[C@H]1c1cc2c(C(F)(F)F)cccn2n1 [Example 1044, (S)-(1-methyl-1H-1,2,4-triazol-5-yl)(4-(4-(trifluoromethyl)pyrazolo[1,5-a]pyridin-2-yl)-6,7-dihydro-1H-imidazo[4,5-c]pyridin-5(4H)-yl)methanone]	< 500 nM
CC(C)(C)c1nnc(C(=O)N2CCc3[nH]cnc3[C@@H]2c2cc3c(Cl)cccn3n2)o1 [Example 1046, (R)-(5-(tert-butyl)-1,3,4-oxadiazol-2-yl)(4-(4-chloropyrazolo[1,5-a]pyridin-2-yl)-6,7-dihydro-1H-imidazo[4,5-c]pyridin-5(4H)-yl)methanone]	> 5000 nM
CC(C)(C)c1nnc(C(=O)N2CCc3[nH]cnc3[C@H]2c2cc3c(Cl)cccn3n2)o1 [Example 1047, (S)-(5-(tert-butyl)-1,3,4-oxadiazol-2-yl)(4-(4-chloropyrazolo[1,5-a]pyridin-2-yl)-6,7-dihydro-1H-imidazo[4,5-c]pyridin-5(4H)-yl)methanone]	< 500 nM
Cc1ccn2nc([C@@H]3c4nc[nH]c4CCN3C(=O)c3nc(C(F)F)nn3C)cc2c1 [Example 1049, (S)-(3-(difluoromethyl)-1-methyl-1H-1,2,4-triazol-5-yl)(4-(5-methylpyrazolo[1,5-a]pyridin-2-yl)-6,7-dihydro-1H-imidazo[4,5-c]pyridin-5(4H)-yl)methanone]	500 to 1000 nM
Cn1ncnc1C(=O)N1CCc2[nH]cnc2[C@@H]1c1cc2c(Cl)cccn2n1 [Example 1051, (R)-(4-(4-chloropyrazolo[1,5-a]pyridin-2-yl)-6,7-dihydro-1H-imidazo[4,5-c]pyridin-5(4H)-yl)(1-methyl-1H-1,2,4-triazol-5-yl)methanone]	> 5000 nM
Cn1nc(C(F)(F)F)nc1C(=O)N1CCc2[nH]cnc2[C@H]1c1cc2c(Cl)cccn2n1 [Example 1052, (S)-(4-(4-chloropyrazolo[1,5-a]pyridin-2-yl)-6,7-dihydro-1H-imidazo[4,5-c]pyridin-5(4H)-yl)(1-methyl-3-(trifluoromethyl)-1H-1,2,4-triazol-5-yl)methanone]	< 500 nM
Cn1nc(C(F)(F)F)nc1C(=O)N1CCc2[nH]cnc2[C@@H]1c1cc2c(Cl)cccn2n1 [Example 1053, (R)-(4-(4-chloropyrazolo[1,5-a]pyridin-2-yl)-6,7-dihydro-1H-imidazo[4,5-c]pyridin-5(4H)-yl)(1-methyl-3-(trifluoromethyl)-1H-1,2,4-triazol-5-yl)methanone]	1000 to 5000 nM
Cn1nc(Cl)nc1C(=O)N1CCc2[nH]cnc2[C@H]1c1cc2c(Cl)cccn2n1 [Example 1054, (S)-(3-chloro-1-methyl-1H-1,2,4-triazol-5-yl)(4-(4-chloropyrazolo[1,5-a]pyridin-2-yl)-6,7-dihydro-1H-imidazo[4,5-c]pyridin-5(4H)-yl)methanone]	< 500 nM

More lines, now with the values ahead:

AC50	Structure (SMILES)
1000 to 5000 nM	Cn1nc(Cl)nc1C(=O)N1CCc2[nH]cnc2[C@@H]1c1cc2c(Cl)cccn2n1 [Example 1055, (R)-(3-chloro-1-methyl-1H-1,2,4-triazol-5-yl)(4-(4-chloropyrazolo[1,5-a]pyridin-2-yl)-6,7-dihydro-1H-imidazo[4,5-c]pyridin-5(4H)-yl)methanone]
< 500 nM	Cc1cccn2nc([C@@H]3c4nc[nH]c4CCN3C(=O)c3nc(C(F)(F)F)nn3C)cc12 [Example 1056, (S)-(1-methyl-3-(trifluoromethyl)-1H-1,2,4-triazol-5-yl)(4-(4-methylpyrazolo[1,5-a]pyridin-2-yl)-6,7-dihydro-1H-imidazo[4,5-c]pyridin-5(4H)-yl)methanone]
> 5000 nM	Cc1cccn2nc([C@H]3c4nc[nH]c4CCN3C(=O)c3nc(C(F)(F)F)nn3C)cc12 [Example 1057, (R)-(1-methyl-3-(trifluoromethyl)-1H-1,2,4-triazol-5-yl)(4-(4-methylpyrazolo[1,5-a]pyridin-2-yl)-6,7-dihydro-1H-imidazo[4,5-c]pyridin-5(4H)-yl)methanone]
500 to 1000 nM	Cc1cccn2nc([C@@H]3c4nc[nH]c4CCN3C(=O)c3nc(C4CC4)nn3C)cc12 [Example 1058, (S)-(3-cyclopropyl-1-methyl-1H-1,2,4-triazol-5-yl)(4-(4-methylpyrazolo[1,5-a]pyridin-2-yl)-6,7-dihydro-1H-imidazo[4,5-c)pyridin-5(4H)-yl)methanone]
< 500 nM	Cn1nc(C(F)F)nc1C(=O)N1CCc2[nH]cnc2[C@H]1c1cc2c(C(F)(F)F)cccn2n1 [Example 1060, (S)-(3-(difluoromethyl)-1-methyl-1H-1,2,4-triazol-5-yl)(4-(4-(trifluoromethyl)pyrazolo[1,5-a]pyridin-2-yl)-6,7-dihydro-1H-imidazo[4,5-c]pyridin-5(4H)-yl)methanone]
500 to 1000 nM	O=C(c1ccnn1C(F)F)N1CCc2[nH]cnc2[C@H]1c1cc2cccc(Cl)n2n1 [Example 1064, (S)-(4-(7-chloropyrazolo[1,5-a]pyridin-2-yl)-6,7-dihydro-1H-imidazo[4,5-c]pyridin-5(4H)-yl)(1-(difluoromethyl)-1H-pyrazol-5-yl)methanone]
< 500 nM	Cn1cc(-c2nnc(C(=O)N3CCc4[nH]cnc4[C@H]3c3cc4cccc(Cl)n4n3)o2)cn1 [Example 1066, (S)-(4-(7-chloropyrazolo[1,5-a]pyridin-2-yl)-6,7-dihydro-1H-imidazo[4,5-c]pyridin-5(4H)-yl)(5-(1-methyl-1H-pyrazol-4-yl)-1,3,4-oxadiazol-2-yl)methanone]
< 500 nM	O=C(c1ocnc1C(F)F)N1CCc2[nH]cnc2[C@H]1c1cc2ccc(F)cn2n1 [Example 1068, (S)-(4-(difluoromethyl)oxazol-5-yl)(4-(6-fluoropyrazolo[1,5-a]pyridin-2-yl)-6,7-dihydro-1H-imidazo[4,5-c]pyridin-5(4H)-yl)methanone]
1000 to 5000 nM	O=C(c1ocnc1C(F)F)N1CCc2[nH]cnc2[C@@H]1c1cc2ccc(F)cn2n1 [Example 1069, (R)-(4-(difluoromethyl)oxazol-5-yl)(4-(6-fluoropyrazolo[1,5-a]pyridin-2-yl)-6,7-dihydro-1H-imidazo[4,5-c]pyridin-5(4H)-yl)methanone]
